Consider one compound from patent publication US20240141330A1, “METHODS AND COMPOSITIONS FOR MUTAGENESIS SCREENING IN MAMMALIAN CELLS” (THE BOARD OF REGENTS OF THE UNIVERSITY OF TEXAS SYSTEM, priority 2021, published 2024).

Structures are written as SMILES. Read-outs that look alike come from different tables or passages of the source.

The subject of this assay is K562 cells harboring doxycycline-inducible BCR-ABL1 variants. The following applies: FIG. 7C. An excerpt:
Values shown are averages±standard error of the mean (SEM) of 2 biological replicates.
For this example, the K562 CML cell line was used as it harbored the BCR-ABL1 fusion gene/protein and was highly sensitive to BCR-ABL1 inhibitors.
LentiMutate may create large and small indels because the HIV-1 RT is known to switch templates and have low processivity. […] As a comparison, also tested was the 35INS variant, a BCR-ABL variant detected in patient samples that truncates BCR-ABL at the end of the kinase domain, producing a kinase dead protein, due to the insertion and usage of a 35 bp sequence in an intron that acts as a novel splicing site.

Turning to `O=C(Nc1ccc(OC(F)(F)Cl)cc1)c1cnc(N2CC[C@@H](O)C2)c(-c2cc[nH]n2)c1` [asciminib], the “Resistance conferred by BCR-ABL1 variant” value is, setting by setting: (deletions in ABL1 (−SV11)) “did not”; (deletions in BCR (−SV8 and −NTCD)) “conferred resistance”.
